Reference: PMC8173604 (Cell, 2021)
Entries after “also recorded” stand apart in the source; their conditions may differ. Read-outs that look alike come from different tables or passages of the source.

What was measured:
HLA-A*26:01 = HLA-A*26:01 (Homo sapiens, UniProt P04439, A114D/A173T/A270S/D101N/D185E/E277Q/E87N/F33Y/G231S/I121R/I218V/K168Q/L180W/L300P/L318F/P208A/P217A/Q86R/Q94H/R138Q/S129P/T187R/T323A/T345S/V100A/V358M); format: binding
HLA-A*02:01 = HLA-A*02:01 (Homo sapiens, UniProt P04439, D140Y/D185E/D98H/E176V/E277Q/G131W/G231S/I119V/I121R/I166T/I218V/L300P/L318F/N151K/N90K/P208A/P217A/Q86G/Q94H/R138H/R169H/T345S); format: binding
[1] = test system: CD8+ T cells of HLA-A*02:01 subjects; format: cell-based, human
[2] = test system: CD8+ T cells of convalescent COVID-19 individuals; details: ref Tarke et al., 2020; cited from earlier work
[3] = test system: CD8+ T cells of HLA-B*07:02 subjects; format: cell-based, human

ELPDEFVVVTV
binding to A*26:01 (in words) (HLA-A*26:01): binds | binding to A*02:01 (in words) (HLA-A*02:01): binds | CD8+ T cell response (in words) ([1]; nine HLA-A*02:01 samples (seven COVID-19 convalescent and two unexposed)): top five reactive peptides; also recorded: strongest CD8+ response among all tested HLA-I peptides

KLWAQCVQL [reference compound]
CD8+ T cell response (in words) [1]: weak responses

QLTPTWRVY
T cell responses in convalescent COVID-19 individuals expressing the predicted alleles [2]: elicit T cell responses

RPPIFIRRL
CD8+ T cell response (in words) [3]: positive reactivity
